Where a name gives a salt, the structure may show the parent alone.
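Note: Aβ(1-42) released into conditioned medium captured by ELISA after roughly 24 h compound exposure, vehicle and inhibitor controls defining maximal and minimal inhibition.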

The test system of one assay is production of amyloid beta protein Aβ(1-42) in human WT-APP overexpressing CHO cells. The settings on record: Homo sapiens, CHO, read-out: Aβ 42 IC50.
The IC50 is the concentration that inhibits the measured activity by half. For `CCOc1cccc(CCNC(=O)c2ccc(-n3cnc(C)c3)c(OC)c2)c1` [Example 112, N-[2-(3-ethoxyphenyl)ethyl]-3-methoxy-4-(4-methyl-1H-imidazol-1-yl)benzamide], the IC50 came to 765 nM.

Staying with this assay, now noted: Homo sapiens, CHO, read-out: Aβ 42 IC50, Geometric mean of 2-8 determinations; human WT-APP overexpressing CHO cells.
Consider `COc1cc(C(=O)NCc2cccc(OC(F)(F)F)c2)ccc1-n1cnc(C)c1` [Example 55, 3-methoxy-4-(4-methyl-1H-imidazol-1-yl)-N-[3-(trifluoromethoxy)benzyl]benzamide], for which the IC50 came out at 332 nM.

Consider `COc1cc(C(=O)NCc2ccc(F)c(Cl)c2)ccc1-n1cnc(C)c1` [Example 54, N-(3-chloro-4-fluorobenzyl)-3-methoxy-4-(4-methyl-1H-imidazol-1-yl)benzamide], for which the IC50 is 326 nM.

With `COc1cc(C(=O)NCc2cc3cc(F)ccc3[nH]2)ccc1-n1cnc(C)c1` [Example 89, N-[(5-fluoro-1H-indol-2-yl)methyl]-3-methoxy-4-(4-methyl-1H-imidazol-1-yl)benzamide], the IC50 was 570 nM.

Take `COc1cc(C(=O)N2CCCC[C@H]2c2ccc(C(F)(F)F)cc2)ccc1-n1cnc(C)c1` [Example 23, (2S)-1-[3-methoxy-4-(4-methyl-1H-imidazol-1-yl)benzoyl]-2-[4-(trifluoro-methyl)phenyl] piperidine]: the IC50 is 838 nM.

Consider `COc1cc(C(=O)NCc2cc3cc(Cl)ccc3[nH]2)ccc1-n1cnc(C)c1` [Example 15, N-[(5-chloro-1H-indol-2-yl)methyl]-3-methoxy-4-(4-methyl-1H-imidazol-1-yl)benzamide], for which the IC50 was determined as 547 nM.

In the case of `COc1cc(C(=O)N2CCC(Oc3ccccc3C(F)(F)F)CC2)ccc1-n1cnc(C)c1` [Example 91, 1-[3-methoxy-4-(4-methyl-1H-imidazol-1-yl)benzoyl]-4-[2-(trifluoromethyl)phenoxy]piperidine], the IC50 was 588 nM.

For `COc1cc(C(=O)NC(c2ccc(F)cc2)c2cccs2)ccc1-n1cnc(C)c1` (stereo not drawn) [Example 41, N-[(4-fluoro-phenyl)(2-thienyl)methyl]-3-methoxy-4-(4-methyl-1H-imidazol-1-yl)benzamide, trifluoroacetic acid salt], the IC50 was 328 nM.

Staying with this assay, now noted: Homo sapiens, CHO, read-out: Aβ 42 IC50, Single IC50 determination; human WT-APP overexpressing CHO cells.
In the case of `COc1cc(C(=O)N2CC[C@@H](Oc3ccccc3C(F)(F)F)C2)ccc1-n1cnc(C)c1` [Example 69, 1-[2-methoxy-4-({(3R)-3-[2-(trifluoromethyl)phenoxy]pyrrolidin-1-yl}carbonyl)phenyl]-4-methyl-1H-imidazole], the IC50 is 421 nM.

The same assay, now with this note: Homo sapiens, CHO, read-out: GM Aβ 42B IC50, Geometric Mean of 2-8 Determinations; human WT-APP overexpressing CHO cells.
As for `COc1cc(C(=O)NCc2cc(-c3cccc(Cl)c3)no2)ccc1-n1cnc(C)c1` [Example 4, N-{[3-(3-chlorophenyl)isoxazol-5-yl]methyl}-3-methoxy-4-(4-methyl-1H-imidazol-1-yl)benzamide], the IC50 came to 330 nM.

For `Cc1cn(-c2ccc(C(=O)NCC3(c4cccc(C(F)(F)F)c4)CCOCC3)cc2F)cn1` [Example 7, 3-fluoro-4-(4-methyl-1H-imidazol-1-yl)-N-({4-[3-(trifluoromethyl)phenyl]tetrahydro-2H-pyran-4-yl}methyl)benzamide, formic acid salt], the IC50 was 2190 nM.

Staying with this assay, now noted: read-out: Aβ 42 IC50.
For the compound `COc1cc(C(=O)N[C@@H](C)c2ccc(C)cc2)ccc1-n1cnc(C)c1` [Example 110, 3-methoxy-4-(4-methyl-1H-imidazol-1-yl)-N-[(1S)-1-(4-methylphenyl)ethyl) benzamide], the IC50 is 747 nM.

Staying with this assay, now noted: read-out: Aβ 42 IC50; Geometric mean of 2-8 determinations; human WT-APP overexpressing CHO cells.
Take `COc1cccc(C[C@@H]2CCC[C@@H]2NC(=O)c2ccc(-n3cnc(C)c3)c(OC)c2)c1` [Example 63, 3-methoxy-N-[(1S,2S)-2-(3-methoxybenzyl)cyclopentyl]-4-(4-methyl-1H-imidazol-1-yl) benzamide]: the concentration for half-maximal inhibition (IC50) is 391 nM.

For `COc1cc(C(=O)NCc2sc3ccccc3c2Cl)ccc1-n1cnc(C)c1` [Example 70, N-[(3-chloro-1-benzothien-2-yl)methyl]-3-methoxy-4-(4-methyl-1H-imidazol-1-yl) benzamide], the IC50 stood at 425 nM.

On to `COc1cc(C(=O)NC(C)CCc2ccccc2)ccc1-n1cnc(C)c1` (stereo not drawn) [Example 100, 3-methoxy-4-(4-methyl-1H-imidazol-1-yl)-N-(1-methyl-3-phenylpropyl) benzamide], for which the IC50 was determined as 667 nM.

On to `COc1cc(C(=O)NCCc2c[nH]c3ccc(Br)cc23)ccc1-n1cnc(C)c1` [Example 52, N-[2-(5-bromo-1H-indol-3-yl)ethyl]-3-methoxy-4-(4-methyl-1H-imidazol-1-yl) benzamide], for which the half-inhibitory concentration (IC50) was found to be 251 nM.

With `COc1cc(C(=O)NCC2(c3cccc(C(F)(F)F)c3)CCOCC2)ccc1-n1cnc(C)c1` [Example 19, 3-methoxy-4-(4-methyl-1H-imidazol-1-yl)-N-({4-[3-(tri-fluoromethyl)phenyl]tetrahydro-2H-pyran-4-yl}methyl) benzamide], the IC50 came to 757 nM.

Consider `COc1cc(C(=O)NCc2sc3c(F)ccc(F)c3c2Cl)ccc1-n1cnc(C)c1` [Example 58, N-[(3-chloro-4,7-difluoro-1-benzothien-2-yl)methyl]-3-methoxy-4-(4-methyl-1H-imidazol-1-yl) benzamide], for which the IC50 amounted to 346 nM.

Turning to `COc1cc(C(=O)NC2(c3ccc(Cl)cc3)CC2)ccc1-n1cnc(C)c1` [Example 78, N-[1-(4-chlorophenyl)cyclopropyl]-3-methoxy-4-(4-methyl-1H-imidazol-1-yl) benzamide], the IC50 came out at 488 nM.

On to `COc1cc(C(=O)NCC2(c3ccc(Cl)cc3)CC2)ccc1-n1cnc(C)c1` [Example 30, N-{[1-(4-chlorophenyl)cyclopropyl]methyl}-3-methoxy-4-(4-methyl-1H-imidazol-1-yl) benzamide], for which the IC50 was determined as 231 nM.

In the case of `COc1cc(C(=O)NCC2(c3cccc(C(F)(F)F)c3)CCC2)ccc1-n1cnc(C)c1` [Example 31, 3-methoxy-4-(4-methyl-1H-imidazol-1-yl)-N-({1-[3-(tri-fluoromethyl)phenyl]cyclobutyl}methyl) benzamide], the IC50 is 298 nM.

For `COc1cc(C(=O)NCc2ccccc2OC(F)(F)F)ccc1-n1cnc(C)c1` [Example 75, 3-methoxy-4-(4-methyl-1H-imidazol-1-yl)-N-[2-(trifluoromethoxy)benzyl] benzamide], the IC50 was determined as 469 nM.

For the compound `COc1cc(C(=O)NCCc2c(C)[nH]c3ccccc23)ccc1-n1cnc(C)c1` [Example 117, 3-methoxy-4-(4-methyl-1H-imidazol-1-yl)-N-[2-(2-methyl-1H-indol-3-yl)ethyl] benzamide], the IC50 came out at 828 nM.

In the case of `COc1cc(C(=O)NCC(CO)c2cccc(C(F)(F)F)c2)ccc1-n1cnc(C)c1` (stereo not drawn) [Example 35, N-{3-hydroxy-2-[3-(trifluoro-methyl)phenyl]propyl}-3-methoxy-4-(4-methyl-1H-imidazol-1-yl) benzamide], the IC50 worked out at 910 nM.

Consider `COc1ccc(C2(CNC(=O)c3ccc(-n4cnc(C)c4)c(OC)c3)CCCC2)cc1` [Example 105, 3-methoxy-N-{[1-(4-methoxyphenyl)cyclopentyl]methyl}-4-(4-methyl-1H-imidazol-1-yl) benzamide], for which the IC50 came to 708 nM.

“N-[3-(3- chlorophenyl) propyl]-3- methoxy-4-(4- methyl-1H- imidazol-1-yl) benzamide [Example 46]”: the IC50 came out at 579 nM.

The assay is the same for the next values; noted with them: read-out: Aβ 42 IC50; Geometric mean of at least 2 determinations; human WT-APP overexpressing CHO cells.
In the case of “1-[4-({3-[(chloro- 5-methylphenoxy) methyl]azetidin- 1-yl}carbonyl)-2- methoxyphenyl]- 4-methyl-1H- imidazole trifluoroacetate salt [Example 139]”, the IC50 is 557 nM.

Source of the values: patent US20120053165A1, “Novel Phenyl Imidazoles and Phenyl Triazoles As Gamma-Secretase Modulators” (Pfizer Inc., priority 2009, published 2012).
